Measured values reported in patent publication US20040028616A1, “Inhibition of lung metastases by aerosol delivery of p53 gene and anti-cancer compounds” (priority 2002, published 2004).

Columns and labels:
[1] = system: B16-F10 lung metastases; assay: In vivo effect of aerosol PEI-p53 and 9NC-DLPC on established B16-F10 lung metastases; parameters: species or system C57BL/6 mice; conditions: lower dose, agent alone
Description: C57BL/6 mice (7-8 weeks old, Harlan Sprague Dawley, Houston, Tex.) were injected via the tail vein with 25,000 B16-F10 cells on day 0. […] Animals in the single agent therapy group were administered p53 one time weekly or 9-nitrocamptothecin twice weekly.
The dosage for treatment was 2 mg plasmid/10 ml of aerosolized solution at a PEI:DNA (N:P) ratio of 10:1 for DNA, and 5 mg 9-nitrocamptothecin at a concentration of 0.5 mg/ml at a 9 nitrocamptothecin:dilauroylphosphatidylcholine weight ratio of 1:50. Aerosol delivery of drugs and genes was performed using 5% CO2-in-air for increased pulmonary deposition. On day 25-post tumor inoculation, the mice were sacrificed, lungs were fixed and the tumor index was calculated.
Tumor index was calculated by the formula: Tumor index=lung weights×average grade for the group. […] The growth of tumor contiguous to the lung was considered as a part of the lung for weighing the lungs. Values are mean+SD (n=10 mice per group).

[2] = system: B16-F10 lung metastases; assay: Survival of B16-F10 challenged mice with PEI-p53/9NC-DLPC aerosol treatment; assay type: in vivo, C57BL/6 mice; conditions: aerosol treatment from day 11 for two weeks; n=10 mice per group
Description: C57BL/6 mice (n=10 mice per group) were injected via the tail vein with 25,000 B16-F10 cells on day 0 and the tumor was allowed to establish until day 10. The mice were then left untreated; or exposed to PEI-p53 aerosol complexes, to 9-nitrocamptothecin alone or to a sequential combination of p53 and 9-nitrocamptothecin, or 9-nitrocamptothecin and Neobam combination starting day 11 after tumor cell injection. Neobam was used as a negative control. The dosage was twice a week for drug or gene alone; and in combination once a week for gene and, twice a week for drug therapy. The mice were treated for two weeks, and then monitored over time for their survival.

[3] = system: B16-F10 cells; assay: In vitro effect of p53 gene and 9NC on B16-F10 cell proliferation (hematocytometer cell count); assay type: cell-based; conditions: drug >0.5 mg/ml; data not shown
Description: B16-F10 cells grown in tissue culture plates (20,000 cells/well in a 48 well plate; […] cells/well in a 12 well plate) are transfected with PEI-DNA complexes (1 μg/ml; p53 or control empty plasmid, Neo) for 24 hours. […] The proliferation of B16-F10 cells 24 hours later was evaluated using the hematocytometer. To count the cells, the cell layer was washed with PBS and then trypsinized with 0.25% trypsin. The Alamar Blue Assay (Trek Diagnostic Systems, Inc) was also performed to test the viability of the cells (data not shown).
Control groups included cells treated with the genes (p53 and Neobam) alone, or with the drug (9-nitrocamptothecin) alone, or with Neobam and 9-nitrocamptothecin in combination. […] The p53 expression levels in parental and p53 treated B16-F10 cells have been reported previously (8).

In the case of `CC[C@@]1(O)C(=O)OCc2c1cc1n(c2=O)Cc2cc3c([N+](=O)[O-])cccc3nc2-1` [9-nitrocamptothecin], the “suppression of metastatic growth or increase of survival by single agent” value [1] is reported as “neither the p53 nor the 9-nitrocamptothecin alone is potent enough”, the mean survival time [2] is reported as 29 ± 3 days and the “inhibition of B16-F10 as single agent, increased drug concentration” value [3] is reported as “very potent inhibition”.
